Results: US12303554B2, “Use of ultrarapid acting insulin” (MannKind Corporation, priority 2008, dated 2025)
Read-outs that look alike come from different tables or passages of the source.

Assays:
[1] = cited from earlier work
[2] = type: in vivo, human
Experimental: The insulin-FDKP formulation is administered to the subjects by oral inhalation using a MEDTONE® dry powder inhaler (MannKind Corp.). Methods and results below are described in terms of the Original Protocol (OP), which includes the meal challenge in 18 subjects with three treatments (EXUBERA®, lispro and TI) and Amendment 1 (A1), which includes 12 subjects treated with only TI and lispro. […] The subjects were screened and evaluated before, during and after the experiments and their data analyzed as described below. Subjects were selected based on several key inclusion criteria, including, male and female, having ≥18 and ≤70 years of age with clinical diagnosis of type 2 diabetes mellitus for ≥12 months. The subjects selected for the study also had stable anti-diabetic regimen with insulin for the previous 3 months; HbA1c ≤8.5%; Body Mass Index (BMI) between ≤34 kg/m^2 and ≥25 kg/m^2; urine cotinine ≤100 ng/mL; […] Criteria for exclusion from the study also included unstable diabetes control and/or evidence of serious complications of diabetes (e.g., autonomic neuropathy); serum creatinine >1.8 mg/dL in female subjects and >2.0 mg/dL in male subjects. Other clinically important pulmonary disease was confirmed by documented history or pulmonary function testing. Under OP, the study was planned to be a randomized, open label, 3-way cross-over study. […] At this analysis all patients at least had completed the meal challenge visits and only those data have been used. The screening visit(s) (V1) occurred 1 to 21 days before the first treatment visit (V2) with 7 to 21 days elapsing between treatment-visits (V2, V3, and V4) for the meal challenge test. A minimum of 8 weeks elapsed between V4 and the next treatment visit, (V6). An additional safety visit (V5) was scheduled 1-3 days prior to the first of 3 glucose clamp procedures (V6). The glucose clamp procedure occurred at 3 visits, Visits V6, V7, and V8, with 7 to 21 days elapsing between the visits. […] Each treatment visit during the meal challenge had the subjects hospitalized in the clinical unit the night before initiation of treatment. […] Each subject followed the same randomization order for the glucose-clamp procedures as for the meal challenge tests. During the study, periodic blood draws for determination of pharmacokinetic and/or pharmacodynamic parameters, and safety were taken beginning at 12 hours prior to onset of the treatment regimens and meal challenge, and thereafter for a period of 8 hours. […] Meal Challenge Test: BOOST PLUS® (12 fl. oz.) consisting of 67.5 g carbohydrate, 21 g protein, 21 g fat, energy content 540 kcal was used for the meal challenge test. The BOOST PLUS® was enriched with U-^13C-glucose to determine the amount of absorbed glucose. Concurrent enriched continuous infusion of 6,6-^2H2 glucose was used to assess endogenous glucose production EGP. […] Under OP, the dose for insulin lispro was selected based on information obtained from the regulatory label. The dose selected for EXUBERA® was obtained by means of back calculation of the most commonly used dose information presented to the FDA Advisory Committee in the EXUBERA® Briefing Document. […] Blood glucose concentrations were measured at regular intervals from arterialized venous blood samples. The amount of orally absorbed glucose was estimated by determination of U-^13C-glucose. EGP was determined by measurement of 6,6-^2H2 glucose applying the modified calculations for the non-steady state ([…], and D. T. Stein. Calculating glucose fluxes during meal tolerance test: a new computational approach. Am. J. Physiol Endocrinol. Metab 293 (2):[…]-[…], 2007). C-peptide concentrations were measured pre- and post-dose to assess endogenous insulin secretion. In addition, glucagon and free fatty acid concentrations were also determined.

[3] = type: in vivo, human; conditions: 10 U lispro
Experimental: Following the completion of the meal challenge, the data was analyzed as per the statistical analysis plan. […] The study was amended (A1) and included 12 subjects (10 were reenrolled from the first meal challenge), and only two treatments, which were 10 U lispro and 60 and 90 U TI. The doses were selected based on the relative bioavailability observed following the first meal challenge (OP), where under an assumption of linear kinetics, 10 U lispro and 60 U TI would result in similar exposure. The 90 U dose group was included to assess the effect of the highest dose group of TI studied in Phase 3 trials. Six of the 12 subjects received 60 U TI and the other 6 subjects received 90 U TI. All 12 subjects received 10 U lispro in a crossover fashion. […] Blood glucose concentrations were measured at regular intervals from arterialized venous blood samples. […] EGP was determined by measurement of 6,6-^2H2 glucose applying the modified calculations for the non-steady state ([…], and D. T. Stein. Calculating glucose fluxes during meal tolerance test: a new computational approach. Am. J. Physiol Endocrinol. Metab 293 (2):[…]-[…], 2007). C-peptide concentrations were measured pre- and post-dose to assess endogenous insulin secretion. In addition, glucagon and free fatty acid concentrations were also determined.

[4] = 52-week clinical trial in type 1 diabetes: basal insulin + prandial TI Inhalation Powder vs basal insulin + SC insulin aspart; type: in vivo, human
Description: A Prospective, Multi-Center, Open-Label, Randomized, Controlled Clinical Trial Comparing the Efficacy and Safety in Subjects with Type 1 Diabetes Receiving SC Basal Insulin and Prandial Inhalation of Insulin-FDKP Versus SC Basal and Prandial Insulin Over a 52-Week Treatment Period and a 4-Week Follow-up
This was a prospective, multi-country, multicenter, open label, randomized, controlled clinical trial comparing glycemic control in subjects with type 1 diabetes receiving basal insulin and prandial insulin-FDKP (TI) Inhalation Powder (TI Inhalation Powder group) with subjects receiving basal insulin and SC rapid-acting insulin aspart (comparator group). This study included a 52-week treatment phase and a 4-week follow-up phase. During the 4-week follow-up phase, pulmonary function and select clinical laboratory assessments were scheduled.
The study began with enrollment at Week −3. Subjects received a complete battery of safety and eligibility assessments, including HbA1c and fasting plasma glucose (FPG).
At Week −1, subjects were randomized to one of the following 2 treatments: • Basal insulin+prandial TI Inhalation Powder • Basal insulin+prandial SC rapid-acting insulin
At Week −1, subjects again completed the first three components of the Insulin Treatment Questionnaire (ITQ) for the purpose of assessing test-retest reliability only). After completing the questionnaire, subjects randomized to the TI Inhalation Powder group were trained on the MEDTONE® Inhaler using TECHNOSPHERE®/insulin (insulin-FDKP) inhalation powder; subjects in the comparator group were trained in the use of the NOVOLOG® pens; all subjects were trained in administration of LANTUS®. Additionally, all subjects were trained on a blood glucose monitoring (HBGM) meter provided at the beginning of the trial and diary and received diabetes education. Any training was repeated at Week 0, if needed.
At the beginning of the treatment phase, subjects had several titration/dose evaluation visits to adjust insulin therapy. Titration visits occurred once a week for the first 4 weeks. During Weeks 4 through 10, there were three telephone “visits” (at Week 6, Week 8, and Week 10) to titrate dose, if necessary. However, dose titration was allowed throughout the trial.
All subjects completed a 7-point blood glucose profile on any 3 days during the week immediately preceding each visit from Week 0 to Week 52. The 7 time points included samples from before breakfast and 2 hours after breakfast, before the mid-day meal and 2 hours after the mid-day meal, before the evening meal and 2 hours after the evening meal and at bedtime (7 time points a day, over 3 days). These blood glucose (BG) values were recorded in the HBGM diary that was collected at clinic visits. The diaries for Weeks 4 through 10 (during dose titration) which were discussed over the telephone were collected at the next office visits.
A meal challenge test was performed at Week 4 (during dose titration), Week 26, and Week 52. Meal challenge venous blood sampling times were: −30, 0, 30, 60, 90, 105, 120, 180, 240, 300, and 360 minutes. Blood glucose (BG) was also measured using HBGM glucose meters to aid the Investigator in treatment decisions and values were obtained at −30, 0, 60, and 120 minutes during the meal challenge.
Treatments for glycemic control used in the trial were the following: prandial insulin-FDKP (TI) inhalation powder, prandial insulin aspart, and basal insulin glargine. Subjects assigned to the TI Inhalation Powder group (TI Inhalation Powder in combination with basal insulin therapy) received sc basal insulin glargine (LANTUS®) once daily (at bedtime) and inhaled TI Inhalation Powder 3 to 4 times a day, immediately before main meals or a snack as based upon clinical need. Adjustment of the TI Inhalation Powder dose and frequency of use to greater than 3 times a day was at the discretion of the Investigator. […]

[5] = 45 U insulin-FDKP, 4 mg EXUBERA, 12 U lispro, FIG. 6
[6] = 52 weeks, + basal insulin glargine
[7] = 52 weeks, + basal insulin, baseline 187.6 (SD 85.1) TI, 180.8 (SD 86.9) comparator

Substance: insulin glulisine: rapid acting insulin analog
- Range of Tmax ([1]; type 1 and type 2 diabetes populations, prescribing information): 40 to 120 min

Substance: insulin lispro: rapid acting insulin analog, subcutaneously administered (Eli Lilly & Co.)
- Time post-treatment at which (further) glucose infusion was needed to remain above 90 mg/dL ([2]; 45 U insulin-FDKP inhaled, 4 mg EXUBERA inhaled, 12 U lispro sc at onset of meal): ~3 h
- Time of peak inhibition of endogenous glucose production after treatment ([2]; 45 U insulin-FDKP, 4 mg EXUBERA, 12 U lispro, FIG. 5): about 80 minutes
- Time of peak glucose disappearance rate after dosing [2, 5]: about 120 minutes
- Time post dosing at which glucose disappearance rate became substantial / departed from baseline [2, 5]: about 30 minutes
- Total insulin exposure, greater than following 45 U insulin-FDKP (TI) or 4 mg EXUBERA ([2]; human, in vivo): approximately 40%
- Insulin concentration tmax (median) ([2]; human, in vivo, 4 mg): 75 min
- Time of peak glucose disappearance rate after dosing ([3]; 60 U and 90 U insulin-FDKP, FIG. 11): about 100 minutes
- Time of peak inhibition of endogenous glucose production following dosing ([3]; 60 U or 90 U insulin-FDKP (two treatments, dose assignment not stated), FIG. 10): about 100 minutes

Substance: Regular human insulin: regular human insulin preparations for subcutaneous injection, considered short acting
- Duration of significant elevation or activity ([1]; subcutaneous injection): 10 to 12 h

Substance: insulin aspart
- Percentage of subjects whose HbA1c level decreased to ≤6.5% [4, 6]: 7.31%
- Percentage of subjects whose HbA1c level decreased to ≤7.0% [4, 6]: 15.98%
- Percentage of subjects whose HbA1c level decreased to ≤8.0% [4, 6]: 56.16%
- Mean FPG at the end of the treatment period [4, 7]: 161.3 (SD 68.2) mg/dL
- Mean decrease in fasting plasma glucose (FPG) over the treatment period [4, 7]: 23.4 (SD 103.1) mg/dL
- HbA1c at Week 14 ([4]; + basal insulin glargine, baseline 8.41 (SD 0.92) TI arm, 8.48 (SD 0.97) insulin aspart arm): 8.07 (SD 1.09) %
- Average body weight gain ([4]; over the 52-week treatment period, + basal insulin): 1.4 kg
- Median Tmax ([1]; subjects with type 1 diabetes, prescribing information): 40 to 50 min
